US10596218B2, “Coix seed oil containing 16 glycerides, and pharmaceutical preparation and use thereof” (ZHEJIANG KANGLAITE GROUP CO., LTD., priority 2014, dated 2020)
Values after ≈ are worked out from the molar mass of the structure shown.

Columns and labels:
Type in all cases: cell-based
[1] = system: SMMC-7721 (human hepatic cancer cells); assay: MTT inhibition of cell growth in vitro, SMMC-7721; conditions: SMMC-7721, MTT, 48 h, read-out: IC50 values of samples in vitro
Excerpt: (§1) (1) Cell lines: PANC-1 (human pancreatic cancer cells), SKOV3 (human ovarian cancer cells), MCF-7 (human breast cancer cells), Bcap-37 (human breast cancer cells), SMMC-7721 (human hepatic cancer cells), HepG-2 (human hepatic cancer cells), A549 (human lung cancer cells) and H460 (human lung cancer cells), storaged and passaged maintainably in Research and Evaluation Center for Pharmacology, Shanghai Institute of Pharmaceutical Industry;
(§2) The inhibition effects of samples on the above-mentioned cell lines were detected by using MTT method. The specific procedures were as follows: […]
(§3) (4) Cells in a logarithmic growth stage were trypsinized and washed, then re-suspended in the medium containing 10% calf serum. The number of living cells was counted in Trypan blue dye exclusion method and cell suspensions were adjusted into a density of 2×10^5 cell/ml. […]
(§4) (7) 100 μl of crystal dissolving solution was added into each well and cells were incubated continuously in the incubator overnight, so as to dissolve the resulted formazan crystals sufficiently. Then, the absorbance value was measured at 570 nm for each well.
(§5) (8) Based on absorbance values, inhibition rates on the cell growth were calculated for sample groups of various concentrations. The calculation formula was as follows: (1−mean absorbance of experimental wells/mean absorbance of control wells)×100%

[2] = system: Bcap-37 (human breast cancer cells); assay: MTT inhibition of cell growth in vitro, Bcap-37; conditions: Bcap37, Bcap-37, MTT, 48 h, read-out: IC50 values of samples in vitro
Excerpt: as §1, §2, §3, §4, §5

[3] = system: H460 (human lung cancer cells); assay: MTT inhibition of cell growth in vitro, H460; conditions: NCI-H460, 48 h, read-out: IC50 values of samples in vitro
Excerpt: as §1, §2, §3, §4, §5

[4] = system: PANC-1 (human pancreatic cancer cells); assay: MTT inhibition of cell growth in vitro, PANC-1; conditions: PANC-1, MTT, 48 h, read-out: IC50 values of samples in vitro
Excerpt: as §1, §2, §3, §4, §5

[5] = system: SKOV3 (human ovarian cancer cells); assay: MTT inhibition of cell growth in vitro, SKOV3; conditions: SK-OV-3, 48 h, read-out: IC50 values of samples in vitro
Excerpt: as §1, §2, §3, §4, §5

Compound: CC(=O)O[C@H]1C(=O)[C@@]2(C)[C@H]([C@H](OC(=O)c3ccccc3)[C@]3(O)C[C@H](OC(=O)[C@H](O)[C@@H](NC(=O)c4ccccc4)c4ccccc4)C(C)=C1C3(C)C)[C@]1(OC(C)=O)CO[C@@H]1C[C@@H]2O [Taxol]
- IC50 [1]: 0.12 µg/mL (≈ 0.141 µM)
- IC50 [2]: 0.28 µg/mL (≈ 0.328 µM)
- IC50 [3]: 0.49 µg/mL (≈ 0.574 µM)
- IC50 [4]: 0.44 µg/mL (≈ 0.515 µM)
- IC50 [5]: 0.22 µg/mL (≈ 0.258 µM)
